Test results from PubChem BioAssay (NCI).
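Here, GI50 denotes the concentration required for 50% inhibition of growth. At the TGI there is no net growth.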

Assays:
Assay in all cases: growth of human tumour cells (NCI), 384-well format
[1] = tested on: MOLT-4 leukemia
[2] = tested on: T-47D breast
[3] = tested on: HT29 colon
[4] = tested on: NCI-H322M lung
[5] = tested on: A549 NSCLC
[6] = tested on: MCF7 breast
[7] = tested on: OVCAR-5 ovarian
[8] = tested on: SN12C renal
[9] = tested on: NCI-H23 lung
[10] = tested on: SK-MEL-28 melanoma
[11] = tested on: UO-31 renal
[12] = tested on: RXF 393 renal
[13] = tested on: COLO 205 colon
[14] = tested on: K-562 leukemia
[15] = tested on: IGROV1 ovarian
[16] = tested on: SF-295 CNS
[17] = tested on: EKVX NSCLC
[18] = tested on: OVCAR-4 ovarian
[19] = tested on: UACC-257 melanoma
[20] = tested on: DU-145 prostate
[21] = tested on: U251 glioblastoma
[22] = tested on: MDA-MB-468 breast
[23] = tested on: SW-620 colon
[24] = tested on: CAKI-1 renal
[25] = tested on: HCT-116 colon
[26] = tested on: SNB-19 CNS
[27] = tested on: TK-10 renal
[28] = tested on: SK-MEL-2 melanoma
[29] = tested on: SR leukemia
[30] = tested on: UACC-62 melanoma
[31] = tested on: SK-MEL-5 melanoma
[32] = tested on: 786-0 renal
[33] = tested on: OVCAR-8 ovarian
[34] = tested on: NCI-H226 lung
[35] = tested on: SK-OV-3 ovarian
[36] = tested on: SNB-75 CNS
[37] = tested on: SF-268 CNS
[38] = tested on: M14 melanoma
[39] = tested on: HS 578T breast
[40] = tested on: KM12 colon
[41] = tested on: HCT-15 colon
[42] = tested on: NCI-H522 lung
[43] = tested on: HL-60(TB) leukemia
[44] = tested on: BT-549 breast
[45] = tested on: HOP-92 NSCLC
[46] = tested on: MALME-3M melanoma
[47] = tested on: SF-539 CNS
[48] = tested on: HOP-62 NSCLC
[49] = tested on: PC-3 prostate
[50] = tested on: OVCAR-3 ovarian
[51] = tested on: A498 renal
[52] = tested on: NCI-H460 NSCLC
[53] = tested on: ACHN renal
[54] = tested on: MDA-MB-231 breast
[55] = tested on: MDA-MB-435 melanoma

For O=C1COc2c(CCNCCN(C(=O)CCNCCc3ccc(Cl)c(Cl)c3)C3CCCCC3)ccc(O)c2N1, the GI50 [1] was 2.01 µM, the TGI [1] was 3.45 µM and the GI50 [2] was 4.22 µM. For the same compound, the TGI [2] was 14.6 µM, the GI50 [3] was 13.4 µM and the TGI [3] was 26.2 µM. It also gave a GI50 [4] of 14.2 µM, a TGI [4] of 27.3 µM and a GI50 [5] of 17.5 µM. The TGI [5] was 31.4 µM, the GI50 [6] was 1.89 µM and the TGI [6] was 3.38 µM. For the same compound, the GI50 [7] was 16.2 µM, the TGI [7] was 29.8 µM and the GI50 [8] was 15.8 µM. For the same compound, the TGI [8] was 29.3 µM, the GI50 [9] was 14.8 µM and the TGI [9] was 28 µM. For the same compound, the GI50 [10] was 4.31 µM, the TGI [10] was 14.6 µM and the GI50 [11] was 17.8 µM. The TGI [11] was 31.7 µM, the GI50 [12] was 2.86 µM and the TGI [12] was 10.8 µM. It also gave a GI50 [13] of 2.69 µM, a TGI [13] of 6.13 µM and a GI50 [14] of 3.24 µM. It also gave a TGI [14] of 10.3 µM, a GI50 [15] of 7.16 µM and a TGI [15] of 19.7 µM. It also gave a GI50 [16] of 13.7 µM, a TGI [16] of 26.6 µM and a GI50 [17] of 12.4 µM. For the same compound, the TGI [17] was 24.9 µM, the GI50 [18] was 16.1 µM and the TGI [18] was 29.7 µM. It also gave a GI50 [19] of 2.75 µM, a TGI [19] of 6.62 µM and a GI50 [20] of 16.2 µM. It also gave a TGI [20] of 29.8 µM, a GI50 [21] of 5.85 µM and a TGI [21] of 18 µM. The GI50 [22] was 1.83 µM, the TGI [22] was 3.27 µM and the GI50 [23] was 5.25 µM. The TGI [23] was 16.8 µM, the GI50 [24] was 14.5 µM and the TGI [24] was 27.7 µM. It also gave a GI50 [25] of 11.5 µM, a TGI [25] of 23.7 µM and a GI50 [26] of 16.8 µM. It also gave a TGI [26] of 30.5 µM, a GI50 [27] of 10.4 µM and a TGI [27] of 22.2 µM. The GI50 [28] was 1.79 µM, the TGI [28] was 3.18 µM and the GI50 [29] was 1.75 µM. The TGI [29] was 3.14 µM, the GI50 [30] was 2.1 µM and the TGI [30] was 4.82 µM. It also gave a GI50 [31] of 6.31 µM, a TGI [31] of 18.1 µM and a GI50 [32] of 15.8 µM. It also gave a TGI [32] of 29.3 µM, a GI50 [33] of 15.1 µM and a TGI [33] of 28.5 µM. The GI50 [34] was 12.3 µM, the TGI [34] was 24.8 µM and the GI50 [35] was 15.5 µM. The TGI [35] was 28.9 µM, the GI50 [36] was 2.28 µM and the TGI [36] was 7.25 µM. For the same compound, the GI50 [37] was 4.73 µM, the TGI [37] was 16.1 µM and the GI50 [38] was 4.2 µM. The TGI [38] was 12.9 µM, the GI50 [39] was 1.76 µM and the TGI [39] was 3.44 µM. It also gave a GI50 [40] of 11.1 µM, a TGI [40] of 23.3 µM and a GI50 [41] of 17.8 µM. The TGI [41] was 31.9 µM, the GI50 [42] was 2.5 µM and the TGI [42] was 5.7 µM. The GI50 [43] was 1.83 µM, the TGI [43] was 3.25 µM and the GI50 [44] was 3.29 µM. For the same compound, the TGI [44] was 12 µM, the GI50 [45] was 1.89 µM and the TGI [45] was 4.35 µM. The GI50 [46] was 5.14 µM, the TGI [46] was 15.6 µM and the GI50 [47] was 11.2 µM. It also gave a TGI [47] of 23.3 µM, a GI50 [48] of 14.5 µM and a TGI [48] of 27.7 µM. The GI50 [49] was 10.8 µM, the TGI [49] was 22.8 µM and the GI50 [50] was 10.3 µM. For the same compound, the TGI [50] was 22 µM, the GI50 [51] was 14.9 µM and the TGI [51] was 28.2 µM. For the same compound, the GI50 [52] was 2.26 µM, the TGI [52] was 4.96 µM and the GI50 [53] was 15.5 µM. For the same compound, the TGI [53] was 28.9 µM, the GI50 [54] was 1.88 µM and the TGI [54] was 10.7 µM. It also gave a GI50 [55] of 2.12 µM and a TGI [55] of 4.44 µM.
